Results taken from ChEMBL document CHEMBL1955812, “New chemotypes acting as isozyme-selective carbonic anhydrase inhibitors with low affinity for the offtarget cytosolic isoform II” (Bioorg Med Chem Lett, 2012).
Blank lines part the entries; values can stand above or below the compound they belong to.

Columns and labels:
Carbonic anhydrase 4 [1] = target: T1, Carbonic anhydrase 4 (Homo sapiens, UniProt P22748); test: Inhibition of human recombinant carbonic anhydrase 4 preincubated for 15 mins to 72 hrs measured after 15 mins by stopped flow CO2 hydration method
Carbonic anhydrase 9 [2] = target: T2, Carbonic anhydrase 9 (Homo sapiens, UniProt Q16790); test: Inhibition of human recombinant carbonic anhydrase 9 preincubated for 15 mins to 72 hrs measured after 6 hrs by stopped flow CO2 hydration method
Carbonic anhydrase 13 [3] = target: T3, Carbonic anhydrase 13 (Homo sapiens, UniProt Q8N1Q1); test: Inhibition of human recombinant carbonic anhydrase 13 preincubated for 15 mins to 72 hrs measured after 15 mins by stopped flow CO2 hydration method
Carbonic anhydrase 7 [4] = target: T4, Carbonic anhydrase 7 (Homo sapiens, UniProt P43166); test: Inhibition of human recombinant carbonic anhydrase 7 preincubated for 15 mins to 72 hrs measured after 15 mins by stopped flow CO2 hydration method
Carbonic anhydrase 14 [5] = target: T5, Carbonic anhydrase 14 (Homo sapiens, UniProt Q9ULX7); test: Inhibition of human recombinant carbonic anhydrase 14 preincubated for 15 mins to 72 hrs measured after 15 mins by stopped flow CO2 hydration method
Carbonic anhydrase 14 [6] = target: T5, Carbonic anhydrase 14; test: Inhibition of human recombinant carbonic anhydrase 14 preincubated for 15 mins to 72 hrs measured after 6 hrs by stopped flow CO2 hydration method
Carbonic anhydrase 1 [7] = target: T6, Carbonic anhydrase 1 (Homo sapiens, UniProt P00915); test: Inhibition of human recombinant carbonic anhydrase 1 preincubated for 15 mins to 72 hrs measured after 6 hrs by stopped flow CO2 hydration method
[8] = target: T7, Carbonic anhydrase 5A, mitochondrial (Homo sapiens, UniProt P35218); test: Inhibition of human recombinant carbonic anhydrase 5A preincubated for 15 mins to 72 hrs measured after 15 mins by stopped flow CO2 hydration method
Carbonic anhydrase 3 [9] = target: T8, Carbonic anhydrase 3 (Homo sapiens, UniProt P07451); test: Inhibition of human recombinant carbonic anhydrase 3 preincubated for 15 mins to 72 hrs measured after 6 hrs by stopped flow CO2 hydration method
Carbonic anhydrase 1 [10] = target: T6, Carbonic anhydrase 1; test: Inhibition of human recombinant carbonic anhydrase 1 preincubated for 15 mins to 72 hrs measured after 15 mins by stopped flow CO2 hydration method
[11] = target: T9, Carbonic anhydrase 5B, mitochondrial (Homo sapiens, UniProt Q9Y2D0); test: Inhibition of human recombinant carbonic anhydrase 5B preincubated for 15 mins to 72 hrs measured after 15 mins by stopped flow CO2 hydration method
Carbonic anhydrase 9 [12] = target: T2, Carbonic anhydrase 9; test: Inhibition of human recombinant carbonic anhydrase 9 preincubated for 15 mins to 72 hrs measured after 15 mins by stopped flow CO2 hydration method
Carbonic anhydrase 4 [13] = target: T1, Carbonic anhydrase 4; test: Inhibition of human recombinant carbonic anhydrase 4 preincubated for 15 mins to 72 hrs measured after 6 hrs by stopped flow CO2 hydration method
Carbonic anhydrase 12 [14] = target: T10, Carbonic anhydrase 12 (Homo sapiens, UniProt O43570); test: Inhibition of human recombinant carbonic anhydrase 12 preincubated for 15 mins to 72 hrs measured after 15 mins by stopped flow CO2 hydration method
Carbonic anhydrase 3 [15] = target: T8, Carbonic anhydrase 3; test: Inhibition of human recombinant carbonic anhydrase 3 preincubated for 15 mins to 72 hrs measured after 15 mins by stopped flow CO2 hydration method
Carbonic anhydrase 12 [16] = target: T10, Carbonic anhydrase 12; test: Inhibition of human recombinant carbonic anhydrase 12 preincubated for 15 mins to 72 hrs measured after 6 hrs by stopped flow CO2 hydration method
Carbonic anhydrase 7 [17] = target: T4, Carbonic anhydrase 7; test: Inhibition of human recombinant carbonic anhydrase 7 preincubated for 15 mins to 72 hrs measured after 6 hrs by stopped flow CO2 hydration method
Carbonic anhydrase 2 [18] = target: T11, Carbonic anhydrase 2 (Homo sapiens, UniProt P00918); test: Inhibition of human recombinant carbonic anhydrase 2 preincubated for 15 mins to 72 hrs measured after 6 hrs by stopped flow CO2 hydration method
Carbonic anhydrase 2 [19] = target: T11, Carbonic anhydrase 2; test: Inhibition of human recombinant carbonic anhydrase 2 preincubated for 15 mins to 72 hrs measured after 15 mins by stopped flow CO2 hydration method
[20] = target: T7, Carbonic anhydrase 5A, mitochondrial; test: Inhibition of human recombinant carbonic anhydrase 5A preincubated for 15 mins to 72 hrs measured after 6 hrs by stopped flow CO2 hydration method
Carbonic anhydrase 6 [21] = target: T12, Carbonic anhydrase 6 (Homo sapiens, UniProt P23280); test: Inhibition of human recombinant carbonic anhydrase 6 preincubated for 15 mins to 72 hrs measured after 15 mins by stopped flow CO2 hydration method
Carbonic anhydrase 6 [22] = target: T12, Carbonic anhydrase 6; test: Inhibition of human recombinant carbonic anhydrase 6 preincubated for 15 mins to 72 hrs measured after 6 hrs by stopped flow CO2 hydration method
Carbonic anhydrase 13 [23] = target: T3, Carbonic anhydrase 13; test: Inhibition of human recombinant carbonic anhydrase 13 preincubated for 15 mins to 72 hrs measured after 6 hrs by stopped flow CO2 hydration method
[24] = target: T9, Carbonic anhydrase 5B, mitochondrial; test: Inhibition of human recombinant carbonic anhydrase 5B preincubated for 15 mins to 72 hrs measured after 6 hrs by stopped flow CO2 hydration method
[25] = tested as the Zn salt or complex

T3 sequence (Q8N1Q1 whole entry): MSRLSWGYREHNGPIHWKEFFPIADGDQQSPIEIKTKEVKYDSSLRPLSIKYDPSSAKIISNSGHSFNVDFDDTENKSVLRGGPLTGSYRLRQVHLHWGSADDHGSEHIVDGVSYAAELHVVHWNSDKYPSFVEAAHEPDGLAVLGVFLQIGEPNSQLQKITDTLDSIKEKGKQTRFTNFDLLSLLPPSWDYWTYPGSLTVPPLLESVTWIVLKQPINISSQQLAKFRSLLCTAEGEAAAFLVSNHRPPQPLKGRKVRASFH
T8 sequence (P07451 whole entry): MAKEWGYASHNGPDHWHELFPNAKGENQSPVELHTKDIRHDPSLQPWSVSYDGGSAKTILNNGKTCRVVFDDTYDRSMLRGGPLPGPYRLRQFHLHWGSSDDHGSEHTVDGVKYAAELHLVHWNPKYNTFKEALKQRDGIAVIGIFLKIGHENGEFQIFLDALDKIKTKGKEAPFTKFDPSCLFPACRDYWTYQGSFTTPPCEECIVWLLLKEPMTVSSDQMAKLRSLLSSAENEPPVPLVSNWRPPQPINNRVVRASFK
T10 sequence (O43570 whole entry): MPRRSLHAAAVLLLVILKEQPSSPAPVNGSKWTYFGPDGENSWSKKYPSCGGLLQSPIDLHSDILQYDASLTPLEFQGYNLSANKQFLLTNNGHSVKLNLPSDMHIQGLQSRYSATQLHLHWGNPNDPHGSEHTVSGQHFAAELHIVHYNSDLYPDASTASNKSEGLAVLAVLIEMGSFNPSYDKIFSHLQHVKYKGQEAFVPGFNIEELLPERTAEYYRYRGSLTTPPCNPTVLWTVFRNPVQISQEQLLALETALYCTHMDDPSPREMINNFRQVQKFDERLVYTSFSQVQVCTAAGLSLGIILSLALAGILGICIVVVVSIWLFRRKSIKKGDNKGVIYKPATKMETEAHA
T1 sequence (P22748 whole entry): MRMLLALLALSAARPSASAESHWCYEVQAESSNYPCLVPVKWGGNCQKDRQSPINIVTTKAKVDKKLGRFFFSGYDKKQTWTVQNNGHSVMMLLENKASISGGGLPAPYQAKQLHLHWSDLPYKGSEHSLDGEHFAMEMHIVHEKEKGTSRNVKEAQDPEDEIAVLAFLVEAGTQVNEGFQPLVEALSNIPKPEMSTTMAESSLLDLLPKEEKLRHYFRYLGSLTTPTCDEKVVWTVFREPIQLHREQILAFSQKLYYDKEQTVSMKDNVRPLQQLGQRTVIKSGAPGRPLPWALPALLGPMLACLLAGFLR
T5 sequence (Q9ULX7 whole entry): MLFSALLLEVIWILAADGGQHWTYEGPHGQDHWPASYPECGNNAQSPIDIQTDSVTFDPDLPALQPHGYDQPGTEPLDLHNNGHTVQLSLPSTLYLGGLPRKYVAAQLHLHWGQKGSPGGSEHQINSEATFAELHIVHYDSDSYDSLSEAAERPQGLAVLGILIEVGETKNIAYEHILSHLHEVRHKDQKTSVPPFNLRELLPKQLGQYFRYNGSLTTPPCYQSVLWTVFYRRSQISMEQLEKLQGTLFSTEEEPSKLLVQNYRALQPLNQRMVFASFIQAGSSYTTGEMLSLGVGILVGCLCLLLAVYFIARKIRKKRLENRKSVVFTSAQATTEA
T12 sequence (P23280 whole entry): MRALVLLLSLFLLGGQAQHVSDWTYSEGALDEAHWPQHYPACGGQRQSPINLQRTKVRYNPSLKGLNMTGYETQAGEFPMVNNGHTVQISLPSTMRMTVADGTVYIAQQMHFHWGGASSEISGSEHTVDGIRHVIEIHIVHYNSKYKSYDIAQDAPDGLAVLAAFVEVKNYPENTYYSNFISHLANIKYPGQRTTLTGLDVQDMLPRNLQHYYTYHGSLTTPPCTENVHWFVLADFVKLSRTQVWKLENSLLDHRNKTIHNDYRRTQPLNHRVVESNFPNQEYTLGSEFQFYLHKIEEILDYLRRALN
T6 sequence (P00915 whole entry): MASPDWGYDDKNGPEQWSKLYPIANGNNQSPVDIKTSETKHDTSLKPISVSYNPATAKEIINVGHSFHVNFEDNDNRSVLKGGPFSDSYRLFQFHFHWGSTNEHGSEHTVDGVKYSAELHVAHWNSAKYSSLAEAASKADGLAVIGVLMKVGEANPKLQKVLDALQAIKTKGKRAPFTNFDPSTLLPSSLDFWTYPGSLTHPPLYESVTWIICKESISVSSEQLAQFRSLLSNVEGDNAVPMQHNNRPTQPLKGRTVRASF
T9 sequence (Q9Y2D0 whole entry): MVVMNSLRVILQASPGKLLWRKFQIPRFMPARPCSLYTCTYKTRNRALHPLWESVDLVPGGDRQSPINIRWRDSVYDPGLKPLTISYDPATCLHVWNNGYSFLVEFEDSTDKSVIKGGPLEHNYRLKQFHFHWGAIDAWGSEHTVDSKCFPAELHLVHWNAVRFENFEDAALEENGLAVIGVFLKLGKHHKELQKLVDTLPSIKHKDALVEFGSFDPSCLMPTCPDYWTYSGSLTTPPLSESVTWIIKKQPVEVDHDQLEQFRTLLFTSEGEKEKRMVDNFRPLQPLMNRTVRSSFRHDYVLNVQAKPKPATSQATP
T4 sequence (P43166 whole entry): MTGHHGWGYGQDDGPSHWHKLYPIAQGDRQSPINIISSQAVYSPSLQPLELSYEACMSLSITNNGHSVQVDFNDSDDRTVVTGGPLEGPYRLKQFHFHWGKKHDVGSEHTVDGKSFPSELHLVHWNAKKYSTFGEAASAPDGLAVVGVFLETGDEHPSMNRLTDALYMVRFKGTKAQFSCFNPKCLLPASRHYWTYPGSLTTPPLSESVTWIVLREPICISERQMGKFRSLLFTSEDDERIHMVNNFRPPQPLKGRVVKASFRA
T7 sequence (P35218 whole entry): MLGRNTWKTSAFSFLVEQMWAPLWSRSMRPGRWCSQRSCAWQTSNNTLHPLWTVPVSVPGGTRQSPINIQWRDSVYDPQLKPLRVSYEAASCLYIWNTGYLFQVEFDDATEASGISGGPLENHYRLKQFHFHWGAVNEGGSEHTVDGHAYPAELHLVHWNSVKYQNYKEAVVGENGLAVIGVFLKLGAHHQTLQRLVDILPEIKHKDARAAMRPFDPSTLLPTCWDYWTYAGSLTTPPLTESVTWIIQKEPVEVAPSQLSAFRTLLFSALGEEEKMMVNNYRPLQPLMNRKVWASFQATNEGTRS

Compound: Oc1ccc2ccccc2n1
Ki (Carbonic anhydrase 4 [1]): 0.36 µM
Ki (Carbonic anhydrase 9 [2]): 0.082 µM
Ki (Carbonic anhydrase 13 [3]): 0.065 µM
Ki (Carbonic anhydrase 7 [4]): 0.42 µM
Ki (Carbonic anhydrase 14 [5]): 0.036 µM
Ki (Carbonic anhydrase 14 [6]): 0.036 µM
Ki (Carbonic anhydrase 1 [7]): 6.23 µM
Ki [8]: 0.41 µM
Ki (Carbonic anhydrase 3 [9]): 0.57 µM
Ki (Carbonic anhydrase 1 [10]): 6.23 µM
Ki [11]: 0.75 µM
Ki (Carbonic anhydrase 9 [12]): 0.082 µM
Ki (Carbonic anhydrase 4 [13]): 0.36 µM
Ki (Carbonic anhydrase 12 [14]): 0.093 µM
Ki (Carbonic anhydrase 3 [15]): 0.57 µM
Ki (Carbonic anhydrase 12 [16]): 0.093 µM
Ki (Carbonic anhydrase 7 [17]): 0.42 µM
Ki (Carbonic anhydrase 2 [18]): > 200 µM
Ki (Carbonic anhydrase 2 [19]): > 200 µM
Ki [20]: 0.41 µM
Ki (Carbonic anhydrase 6 [21]): 0.033 µM
Ki (Carbonic anhydrase 6 [22]): 0.033 µM
Ki (Carbonic anhydrase 13 [23]): 0.065 µM
Ki [24]: 0.75 µM

Ki (Carbonic anhydrase 9 [2]): 0.016 µM
Ki (Carbonic anhydrase 1 [7]): 0.009 µM
Ki (Carbonic anhydrase 12 [16]): 0.064 µM
Ki (Carbonic anhydrase 7 [17]): 0.27 µM
Ki (Carbonic anhydrase 2 [18]): > 200 µM
Compound: Cc1cc(C)o/c(=N/O)c1

Compound: O=C(S)c1ccccc1 [THIOBENZOIC ACID]
Ki (Carbonic anhydrase 9 [2]): 5.64 µM
Ki (Carbonic anhydrase 7 [4]): 5.74 µM
Ki (Carbonic anhydrase 1 [7]): 10.8 µM
Ki (Carbonic anhydrase 1 [10]): 10.8 µM
Ki (Carbonic anhydrase 9 [12]): 5.64 µM
Ki (Carbonic anhydrase 12 [14]): 2.77 µM
Ki (Carbonic anhydrase 12 [16]): 2.77 µM
Ki (Carbonic anhydrase 7 [17]): 5.74 µM
Ki (Carbonic anhydrase 2 [18]): 51 µM
Ki (Carbonic anhydrase 2 [19]): 51 µM

Ki (Carbonic anhydrase 3 [9]): > 200 µM
Ki (Carbonic anhydrase 4 [13]): 62.3 µM
Ki (Carbonic anhydrase 7 [17]): > 200 µM
Ki (Carbonic anhydrase 13 [23]): > 200 µM
Compound: O=c1ccc2ccccc2o1 [COUMARIN]

Compound: [O-][n+]1ccccc1S [PYRITHIONE ZINC]
Ki (Carbonic anhydrase 4 [1]; [25]): 6.13 µM
Ki (Carbonic anhydrase 9 [2]; [25]): 1.72 µM
Ki (Carbonic anhydrase 13 [3]; [25]): 4.15 µM
Ki (Carbonic anhydrase 7 [4]; [25]): 7.76 µM
Ki (Carbonic anhydrase 14 [5]; [25]): 2.91 µM
Ki (Carbonic anhydrase 14 [6]; [25]): 2.91 µM
Ki (Carbonic anhydrase 1 [7]; [25]): > 200 µM
Ki [8, 25]: 5.12 µM
Ki (Carbonic anhydrase 3 [9]; [25]): 1.62 µM
Ki (Carbonic anhydrase 1 [10]; [25]): > 200 µM
Ki [11, 25]: 3.55 µM
Ki (Carbonic anhydrase 9 [12]; [25]): 1.72 µM
Ki (Carbonic anhydrase 4 [13]; [25]): 6.13 µM
Ki (Carbonic anhydrase 12 [14]; [25]): 5.4 µM
Ki (Carbonic anhydrase 3 [15]; [25]): 1.62 µM
Ki (Carbonic anhydrase 12 [16]; [25]): 5.4 µM
Ki (Carbonic anhydrase 7 [17]; [25]): 7.76 µM
Ki (Carbonic anhydrase 2 [18]; [25]): > 200 µM
Ki (Carbonic anhydrase 2 [19]; [25]): > 200 µM
Ki [20, 25]: 5.12 µM
Ki (Carbonic anhydrase 6 [21]; [25]): 2.41 µM
Ki (Carbonic anhydrase 6 [22]; [25]): 2.41 µM
Ki (Carbonic anhydrase 13 [23]; [25]): 4.15 µM
Ki [24, 25]: 3.55 µM

Compound: CCOP(=S)(OCC)Oc1ccc2c(C)c(Cl)c(=O)oc2c1 [COUMAPHOS]
Ki (Carbonic anhydrase 9 [2]): 6.41 µM
Ki (Carbonic anhydrase 14 [6]): 4.14 µM
Ki (Carbonic anhydrase 1 [7]): 61.7 µM
Ki (Carbonic anhydrase 3 [9]): 4.62 µM
Ki (Carbonic anhydrase 4 [13]): 5.48 µM
Ki (Carbonic anhydrase 12 [16]): 9.52 µM
Ki (Carbonic anhydrase 7 [17]): 4.68 µM
Ki (Carbonic anhydrase 2 [18]): > 200 µM
Ki [20]: 5.09 µM
Ki (Carbonic anhydrase 6 [22]): 2.23 µM
Ki (Carbonic anhydrase 13 [23]): 4.23 µM
Ki [24]: 3.41 µM

Ki (Carbonic anhydrase 9 [2]): 0.058 µM
Ki (Carbonic anhydrase 1 [7]): 0.009 µM
Ki (Carbonic anhydrase 12 [16]): 0.054 µM
Ki (Carbonic anhydrase 7 [17]): 0.84 µM
Ki (Carbonic anhydrase 2 [18]): > 200 µM
Compound: O/N=c1/ccc2ccccc2o1
